What was measured:
[1] = tested on: parathyroid hormone (PTH); assay: PTH suppression in adult rats; assay type: in vivo, Sprague-Dawley rats; details: ip, 7 consecutive days, FIG. 7
Procedure: FIG. 7 is a bar graph comparing the percent parathyroid hormone (PTH) suppression in adult rats of (20R)-2 MbisP with 1,25(OH)2D3.
(§1) Adult, female Sprague-Dawley rats were obtained from Harlan (Madison, Wis.).
(§2) Upon receipt, the animals were identified by individual tail marks. Animals were housed in suspended, stainless steel, wire-bottom cages. Each cage contained one animal. The animal rooms were maintained at a temperature of 68 to 72° F. and a relative humidity of 25 to 75%. The holding rooms were set to provide 12 hours of light per day. Water and a purified rodent diet (Suda et al., Purified Rodent Diet-Diet 11) containing […] 0.3% phosphorus and fat soluble vitamins A, D, E and K were provided ad libitum.
(§3) Animals were randomly assigned to treatment groups (5 animals/group). All doses were administered intraperitoneally in 100 microliters of propylene glycol. Four to seven consecutive doses were given approximately 24 hours apart. Dosing was initiated after the animals had been allowed to acclimate for at least one week. […]
Twenty-four hours after the final dose, blood was collected from the tail artery and the concentration of bioactive serum PTH was measured using the rat BioActive Intact PTH ELISA Kit from Immutopics, Inc. (San Clemente, Calif.).

[2] = Intestinal calcium transport (everted gut sac method); assay type: in vivo, Sprague-Dawley rats; details: rats, ip, four consecutive doses, even very high concentrations; FIG. 5
Description: FIG. 5 is a bar graph comparing the intestinal calcium transport activity of (20R)-2 MbisP with that of 1,25(OH)2D3.
(§4) Male, weanling Sprague-Dawley rats were placed on Diet 11 (0.47% Ca) diet +AEK for one week followed by Diet 11 (0.02% Ca) +AEK for 3 weeks. The rats were then switched to a diet containing 0.47% Ca for one week followed by two weeks on a diet containing 0.02% Ca. Dose administration began during the last week on 0.02% calcium diet. Four consecutive ip doses were given approximately 24 hours apart. Twenty-four hours after the last dose, blood was collected from the severed neck and the concentration of serum calcium determined as a measure of bone calcium mobilization. The first 10 cm of the intestine was also collected for intestinal calcium transport analysis using the everted gut sac method.

[3] = tested on: 24-hydroxylase (24Ohase) gene promoter; assay: In vitro transcription assay (luciferase reporter in ROS 17/2.8 cells); assay type: cell-based; details: FIG. 3
Procedure: FIG. 3 is a graph comparing the in vitro transcription activity of (20R)-2MbisP with that of 1,25(OH)2D3.
Transcription activity was measured in ROS 17/2.8 (bone) cells that were stably transfected with a 24-hydroxylase (24Ohase) gene promoter upstream of a luciferase reporter gene (Arbour et al., 1998). Cells were given a range of doses. Sixteen hours after dosing the cells were harvested and luciferase activities were measured using a luminometer. RLU=relative luciferase units.

[4] = tested on: Human promyelocytic leukemia (HL60) cells; assay: HL-60 differentiation (nitro blue tetrazolium reduction); assay type: cell-based; details: HL-60 cells in culture; FIG. 2
Procedure: FIG. 2 is a graph comparing the percent HL-60 cell differentiation as a function of the concentration of (20R)-2 MbisP with that of 1,25(OH)2D3.
The study drugs were dissolved in ethanol and the concentrations determined using UV spectrophotometry. Serial dilutions were prepared so that a range of drug concentrations could be tested without changing the final concentration of ethanol (≦0.2%) present in the cell cultures.
Human promyelocytic leukemia (HL60) cells were grown in RPMI-1640 medium containing 10% fetal bovine serum. The cells were incubated at 37° C. in the presence of 5% CO2.
HL60 cells were plated at 1.2×10^5 cells/ml. Eighteen hours after plating, cells in duplicate were treated with drug. Four days later, the cells were harvested and a nitro blue tetrazolium reduction assay was performed (Collins et al., 1979; J. Exp. Med. 149:969-974). The percentage of differentiated cells was determined by counting a total of 200 cells and recording the number that contained intracellular black-blue formazan deposits. Verification of differentiation to monocytic cells was determined by measuring phagocytic activity (data not shown).

[5] = Hypercalcemia: serum calcium in adult rats; assay type: in vivo, Sprague-Dawley rats; details: ip, doses as high as 45 nmol/day, FIG. 6
Procedure: FIG. 6 is a bar graph comparing the serum calcium levels in adult rats after administration of (20R)-2 MbisP and 1,25(OH)2D3.
as §1, §2, §3
Twenty-four hours after the final dose, approximately 1 ml of blood was collected from the tail artery of each experimental animal. […] The level of calcium was determined by diluting the serum into 0.1% lanthum chloride and measuring the absorbance on an atomic absorption spectrophotometer (Perkin Elmer Model 3110, Shelton, Conn.).

[6] = target: T1, full-length recombinant rat vitamin D receptor (Rattus norvegicus, UniProt P13053); assay: Vitamin D receptor competitive binding with [3H]-1,25-(OH)2-D3; details: competition with [3H]-1,25-(OH)2-D3; FIG. 1
T1 construct: Full-length recombinant rat receptor was expressed in E. coli BL21(DE3) Codon Plus RIL cells; histidine tag (C); made in house; host or cells: E. coli BL21(DE3) Codon Plus RIL
T1 sequence (P13053 1-423): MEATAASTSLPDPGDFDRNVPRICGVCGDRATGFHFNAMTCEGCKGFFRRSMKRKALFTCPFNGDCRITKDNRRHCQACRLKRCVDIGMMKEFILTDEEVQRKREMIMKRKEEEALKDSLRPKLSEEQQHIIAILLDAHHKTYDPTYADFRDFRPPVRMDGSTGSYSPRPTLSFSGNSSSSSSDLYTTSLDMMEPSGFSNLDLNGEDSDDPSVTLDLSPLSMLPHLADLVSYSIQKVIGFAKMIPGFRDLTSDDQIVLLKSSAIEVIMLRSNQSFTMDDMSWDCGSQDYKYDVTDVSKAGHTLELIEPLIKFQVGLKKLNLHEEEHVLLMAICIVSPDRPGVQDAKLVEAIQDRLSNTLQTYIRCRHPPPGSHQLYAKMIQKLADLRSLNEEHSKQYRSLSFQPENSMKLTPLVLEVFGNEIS
Description: FIG. 1 is a graph comparing the relative activity of (20R)-2 MbisP and 1,25(OH)2D3 to compete for binding with [^3H]-1,25-(OH)2-D3 to the full-length recombinant rat vitamin D receptor.
Full-length recombinant rat receptor was expressed in E. coli BL21(DE3) Codon Plus RIL cells and purified to homogeneity using two different column chromatography systems. The first system was a nickel affinity resin that utilizes the C-terminal histidine tag on this protein. The protein that was eluted from this resin was further purified using ion exchange chromatography (S-Sepharose Fast Flow). Aliquots of the purified protein were quick frozen in liquid nitrogen and stored at −80° C. until use. For use in binding assays, the protein was diluted in TEDK50 (50 mM Tris, 1.5 mM EDTA, pH 7.4, 5 mM DTT, 150 mM KCl) with 0.1% Chaps detergent. […]
Unlabeled ligands were dissolved in ethanol and the concentrations determined using UV spectrophotometry (1,25(OH)2D3: molar extinction coefficient=18,200 and λmax=265 nm; Analogs: molar extinction coefficient=42,000 and λmax=252 nm). […]
Radiolabeled and unlabeled ligands were added to 100 mcl of the diluted protein at a final ethanol concentration of ≦10%, mixed and incubated overnight on ice to reach binding equilibrium. […] Total binding was determined from the tubes containing only radiolabeled ligand.

[7] = Bone calcium mobilization (serum calcium on low calcium diet); assay type: in vivo, Sprague-Dawley rats; details: rats, ip, four consecutive doses, even very high concentrations; FIG. 4
Description: FIG. 4 is a bar graph comparing the bone calcium mobilization activity of (20R)-2 MbisP with that of 1,25(OH)2D3.
as §4

[8] = target: T2, vitamin D receptors (Homo sapiens, UniProt P11473); details: as set forth in the '352, '861 and '622 patents; cited from earlier work
T2 sequence (P11473 1-427): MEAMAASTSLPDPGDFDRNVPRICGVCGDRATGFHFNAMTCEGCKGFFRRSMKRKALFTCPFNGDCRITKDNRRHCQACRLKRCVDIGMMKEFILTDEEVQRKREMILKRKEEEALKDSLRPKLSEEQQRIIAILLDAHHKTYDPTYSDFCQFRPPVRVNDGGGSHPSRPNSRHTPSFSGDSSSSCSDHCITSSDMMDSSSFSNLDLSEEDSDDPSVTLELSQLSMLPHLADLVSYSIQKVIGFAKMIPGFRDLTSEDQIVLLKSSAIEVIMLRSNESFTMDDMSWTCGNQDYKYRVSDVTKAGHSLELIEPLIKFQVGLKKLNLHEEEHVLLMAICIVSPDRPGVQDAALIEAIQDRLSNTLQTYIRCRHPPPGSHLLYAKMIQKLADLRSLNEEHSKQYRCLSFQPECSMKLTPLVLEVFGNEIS

[9] = as set forth in the '352, '861 and '622 patents; cited from earlier work
[10] = as set forth in the '352, '861 and '622 patents; cited from earlier work; remark: listed apart in the source

| Molecule | suppression of parathyroid hormone (PTH) in the plasma [1] | intestinal calcium transport [2] | times less active than 1,25-(OH)2D3 in turning on transcription of a reporter gene coupled to the CYP-24 promoter [3] | times less active than 1,25-(OH)2D3 in causing the differentiation of HL-60 cells [4] | hypercalcemia (serum calcium) [5] | binding to the recombinant vitamin D receptor relative to 1,25-(OH)2D3 [6] | bone calcium mobilization [7] | binding activity to vitamin D receptors [8] | cell differentiation activity [9] | calcemic activity as compared to 1α,25-dihydroxyvitamin D3 [10] |
| --- | --- | --- | --- | --- | --- | --- | --- | --- | --- | --- |
| C=C1[C@H](O)CC(=C/C=C2\CCC[C@]3(C)C([C@H](C)CC)CC[C@@H]23)C[C@H]1O (stereo in doubt) [2-Methylene-19-nor-(20R)-1α-hydroxy-bishomopregnacalciferol] | considerable activity | does not support | about 5 times | about 5 times | failed to cause hypercalcemia | approximately equally effective as 1,25-(OH)2D3 | does not support | – | – | – |
| 1α-hydroxy-2-methylene-19-nor-(20S)-homopregnacalciferol | – | – | – | – | – | – | – | relatively high | relatively high | little if any |
| C=C1[C@H](O)CC(=C/C=C2\CCC[C@]3(C)[C@@H](CC)CC[C@@H]23)C[C@H]1O [1α-Hydroxy-2-methylene-19-nor-pregnacalciferol] | – | – | – | – | – | – | – | relatively high | relatively high | little if any |
| 1α-hydroxy-2-methylene-19-nor-bishomopregnacalciferol | – | – | – | – | – | – | – | relatively high | relatively high | little if any |

— patent US8222235B2, “2-methylene-19-nor-(20R)-1α-hydroxy-bishomopregnacalciferol” (Wisconsin Alumni Research Foundation, priority 2004, dated 2012)
